The source of these data is patent US20090246880A1, “Method for preventing degradation of diacetylpolyamine” (priority 2008, published 2009).

How the values of this series were obtained:
The present invention will next be described in detail by way of examples, which should not be construed as limiting the invention thereto. The percent degradation of diacetylspermine (%) in a sample was calculated on the basis of the amount of diacetylspermine as determined through ELISA. […] Subsequently, the pH of the mixture was adjusted with 50 mM phosphate buffer to 5.5, 6.0, 6.5, 7.0, 7.5, or 8.0. Thereafter, the reaction mixture was incubated at 37° C. for two hours. […] Subsequently, the ratio of the amount of diacetylspermine degraded through incubation to the initial amount of diacetylspermine was calculated.

Consider `CC(=O)NCCCNCCCCNCCCNC(C)=O` [diacetylspermine], for which the “degradation of diacetylspermine (in words)” value is listed as “prevented”.
